Experimental findings from ChEMBL document CHEMBL5143540, “Design, synthesis and biological evaluation of nitrofuran-1,3,4-oxadiazole hybrids as new antitubercular agents” (Bioorg Med Chem, 2022) are described below.

Values after ≈ are worked out from the molar mass of the structure shown.

The target of series [1] is Voltage-gated inwardly rectifying potassium channel KCNH2 (Homo sapiens, UniProt Q12809). The series can be described thus: Inhibition of human ERG expressed in HEK293 cells by whole cell electrophysiology assay. It counts as toxicity, cell-based.
Series [2] in a line: Cytotoxicity against african green monkey Vero cells assessed as reduction in cell viability after 72 hrs by MTT assay. The conditions noted are these: chlorocebus sabaeus. It counts as toxicity, cell-based. (Tetrazolium dyes change colour on reduction, which living cells bring about.)
Series [3] in a line: Cmax in ICR mouse at 25 mg/kg, po measured upto 24 hrs by HPLC analysis. It counts as ADME, organism-based. Set-up: dose 25 mg/kg, time < 24 hrs, route po. The conditions noted are these: in vivo.
For series [4], the system named is Mycobacterium tuberculosis. The series can be described thus: Antitubercular activity against Mycobacterium tuberculosis H37Ra ATCC 25177 assessed as reduction in bacterial growth incubated for 7 days by Alamar blue assay. It counts as functional. The conditions noted are these: H37Ra ATCC 25177, 168 h, time 7 day. On the technique in general: The colour change of resazurin is a common sign of viable cells or microbes.

Series [5] is described as follows: Tmax in ICR mouse at 25 mg/kg, po measured upto 24 hrs by HPLC analysis. It counts as ADME, organism-based. The conditions noted are these: in vivo.
Series [6] is described as follows: Clearance in ICR mouse at 25 mg/kg, po measured upto 24 hrs by HPLC analysis. It counts as ADME, organism-based. The conditions noted are these: in vivo.
A short description of series [7]: Volume of distribution in ICR mouse at 25 mg/kg, po measured upto 24 hrs by HPLC analysis. The conditions noted are these: in vivo. It counts as ADME, organism-based.
Series [8] can be described thus: Half life in ICR mouse at 25 mg/kg, po measured upto 24 hrs by HPLC analysis. It counts as ADME, organism-based. The conditions noted are these: in vivo.
Series [9] is described as follows: MRT in ICR mouse at 25 mg/kg, po measured upto 24 hrs by HPLC analysis. It counts as ADME, organism-based. Particulars: in vivo.
Series [10] is described as follows: AUC(0 to infinity) in ICR mouse at 25 mg/kg, po measured upto 24 hrs by HPLC analysis. It counts as ADME, organism-based. On the set-up: dose 25 mg/kg, time < 24 hrs, route po. Particulars: in vivo.
Series [11] deals with hERG (KCNH2) (Homo sapiens, UniProt Q12809). Description: Inhibition of human ERG expressed in HEK293 cells at 10 uM by whole cell electrophysiology assay relative to control. The conditions noted are these: HEK293 cells expressing hERG. It counts as toxicity, cell-based.
Sequence of hERG (KCNH2) (Q12809 whole entry): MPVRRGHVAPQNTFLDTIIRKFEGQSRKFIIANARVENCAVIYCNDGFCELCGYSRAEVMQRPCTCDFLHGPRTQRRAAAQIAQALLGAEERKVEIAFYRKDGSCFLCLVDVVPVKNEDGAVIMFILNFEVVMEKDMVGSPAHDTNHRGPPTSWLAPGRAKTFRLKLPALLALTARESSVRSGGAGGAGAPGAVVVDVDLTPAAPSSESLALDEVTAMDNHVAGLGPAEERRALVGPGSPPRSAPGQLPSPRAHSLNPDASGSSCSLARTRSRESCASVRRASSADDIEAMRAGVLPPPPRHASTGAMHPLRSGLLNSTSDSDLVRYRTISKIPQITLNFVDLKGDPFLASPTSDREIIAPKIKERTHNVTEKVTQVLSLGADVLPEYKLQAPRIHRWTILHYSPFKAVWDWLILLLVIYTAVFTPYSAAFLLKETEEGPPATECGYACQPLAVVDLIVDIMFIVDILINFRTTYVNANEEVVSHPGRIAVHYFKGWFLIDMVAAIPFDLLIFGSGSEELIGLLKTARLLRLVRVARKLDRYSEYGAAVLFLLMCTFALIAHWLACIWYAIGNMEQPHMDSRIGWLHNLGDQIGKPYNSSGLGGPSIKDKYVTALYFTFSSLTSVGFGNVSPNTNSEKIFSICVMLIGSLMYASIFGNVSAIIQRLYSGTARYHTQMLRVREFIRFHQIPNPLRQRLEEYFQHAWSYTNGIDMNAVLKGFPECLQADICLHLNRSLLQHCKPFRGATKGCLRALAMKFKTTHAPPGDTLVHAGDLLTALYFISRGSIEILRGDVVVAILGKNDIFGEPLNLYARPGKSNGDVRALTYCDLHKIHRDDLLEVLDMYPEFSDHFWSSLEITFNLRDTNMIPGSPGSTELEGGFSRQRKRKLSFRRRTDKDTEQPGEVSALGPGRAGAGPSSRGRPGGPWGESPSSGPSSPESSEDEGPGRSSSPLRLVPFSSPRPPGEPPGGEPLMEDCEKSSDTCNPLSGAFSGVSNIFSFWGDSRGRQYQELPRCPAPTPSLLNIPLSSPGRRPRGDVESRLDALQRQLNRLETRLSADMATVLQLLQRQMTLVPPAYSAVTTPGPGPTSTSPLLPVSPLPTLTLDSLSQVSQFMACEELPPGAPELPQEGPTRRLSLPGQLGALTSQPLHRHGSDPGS

Sequence of Voltage-gated inwardly rectifying potassium channel KCNH2 (Q12809 whole entry): as above

One may read the IC50 as the concentration at which inhibition is half-maximal. One may read the CC50 as the concentration that lowers cell viability or growth by half. The term Cmax denotes the maximum level reached in the sampled fluid or tissue. The MIC is the least concentration at which growth counts as inhibited. As usually defined, the Tmax is the time from dosing to the highest level. As usually defined, the CL/F is clearance divided by bioavailability, as obtained after extravascular dosing. The half-life is the time in which the quantity being followed falls by half. The MRT is a mean duration of stay, worked out from the concentration-time curve. For orientation: AUC(0-inf) means total exposure, with the tail of the curve extrapolated. One may read the inhibition as the share of the control response that was lost under treatment. The molecule `O=C(Nc1nnc(-c2ccc(Br)cc2)o1)c1ccc([N+](=O)[O-])o1` yielded an IC50 in series [1] above 10 µM. Besides, the CC50 at 72 h in series [2] was 57.3 µg/mL (≈ 151 µM). In series [3], this molecule came in with a Cmax of 15800 ng/mL. Moreover, in series [4], the MIC was 0.795 µg/mL (≈ 2.1 µM). Further, the Tmax in series [5] amounted to 15 min. In [6], this molecule showed a CL/F of 3.79 mL/min/kg. The molecule also had a Vd in series [7] of 1.46 L/kg. This molecule had a half-life in [8] of 270 min. This molecule also displayed an MRT in series [9] of 382 min. In addition, the AUC(0-inf) in series [10] was determined as 110000 ng·h/mL. The molecule further yielded an inhibition at 10 µM in series [11] of 11.3%. For the molecule `CC(C)c1nnc(-c2ccc([N+](=O)[O-])o2)o1`, in [4], the MIC came out at 0.709 µg/mL (≈ 3.18 µM). The same measure, in the same setting: for `O=C(Nc1nnc(C2CCCO2)o1)c1ccc([N+](=O)[O-])o1` (configuration not stated) the value was 0.007 µg/mL (≈ 0.0238 µM); for `O=C(Nc1nnc(-c2ccc(OC(F)(F)F)cc2)o1)c1ccc([N+](=O)[O-])o1`, 1.23 µg/mL (≈ 3.2 µM). For `O=C(NCc1nnc(-c2ccc(C(F)(F)F)cc2)o1)c1ccc([N+](=O)[O-])o1`, the CC50 at 72 h in series [2] is 3.56 µg/mL (≈ 9.32 µM). In [4], the MIC came to 3.73 µg/mL (≈ 9.75 µM). Turning to `O=[N+]([O-])c1ccc(-c2nnc(-c3ccc(OC(F)(F)F)cc3)o2)o1`, the MIC in [4] is 0.178 µg/mL (≈ 0.522 µM). The same measure, in the same setting: the figure for `COc1ccc(-c2nnc(NC(=O)c3ccc([N+](=O)[O-])o3)o2)cc1` is 0.191 µg/mL (≈ 0.578 µM).

With `O=c1nc(N2CCN(CC3CCCCC3)CC2)sc2c([N+](=O)[O-])cc(C(F)(F)F)cc12` [MACOZINONE], the CL/F in series [6] worked out at 279 mL/min/kg. For the same molecule, the Vd in series [7] was determined as 56.8 L/kg.

`O=C(Nc1nnc(-c2ccc(C(F)(F)F)cc2)o1)c1ccc([N+](=O)[O-])o1`: the MIC in series [4] worked out at 0.999 µg/mL (≈ 2.71 µM). Same read-out and setting: the figure for `O=C(Nc1nnc(C2CCCCC2)o1)c1ccc([N+](=O)[O-])o1` is 0.025 µg/mL (≈ 0.0816 µM); for `O=[N+]([O-])c1ccc(-c2nnc(-c3ccc(C(F)(F)F)cc3)o2)o1` it is 0.125 µg/mL (≈ 0.384 µM); for `COc1ccc(-c2nnc(-c3ccc([N+](=O)[O-])o3)o2)cc1` it is 0.475 µg/mL (≈ 1.65 µM). Turning to `CCC(CC)c1nnc(-c2ccc([N+](=O)[O-])o2)o1`, the MIC in [4] amounted to 0.911 µg/mL (≈ 3.63 µM). In the case of `O=[N+]([O-])c1ccc(-c2nnc(-c3ccccc3)o2)o1`, the MIC in series [4] is 1.59 µg/mL (≈ 6.17 µM). For the molecule `CC(C)(C)c1ccc(-c2nnc(CNC(=O)c3ccc([N+](=O)[O-])o3)o2)cc1`, the CC50 at 72 h in [2] turned out to be 3.62 µg/mL (≈ 9.79 µM). The same molecule showed a Cmax in series [3] of 139 ng/mL. In [4], the MIC was 4.83 µg/mL (≈ 13 µM). Moreover, in [5], the Tmax came out at 15 min. The molecule also gave a CL/F in series [6] of 4600 mL/min/kg. In series [7], this molecule came in with a Vd of 227 L/kg. For the same molecule, the half-life in [8] was 40.2 min. Also, in series [9], the mean residence time (MRT) amounted to 55.2 min. Further, the AUC(0-inf) in [10] was determined as 99.3 ng·h/mL. Turning to `COc1ccc(Cc2nnc(NC(=O)c3ccc([N+](=O)[O-])o3)o2)cc1`, the MIC in series [4] was determined as 0.02 µg/mL (≈ 0.0581 µM).

As for `CC(C)(C)c1ccc(-c2nnc(-c3ccc([N+](=O)[O-])o3)o2)cc1`, the MIC in series [4] is 0.06 µg/mL (≈ 0.192 µM). On the same count and under the same terms, for `O=C(NCc1nnc(-c2ccccc2)o1)c1ccc([N+](=O)[O-])o1` the value was 2.43 µg/mL (≈ 7.74 µM); for `O=[N+]([O-])c1ccc(-c2nnc(C3CCCO3)o2)o1` (configuration not stated), 2 µg/mL (≈ 7.96 µM); for `CO[C@H]1/C=C/O[C@@]2(C)Oc3c(C)c(O)c4c(O)c(c(/C=N/N5CCN(C)CC5)c(O)c4c3C2=O)NC(=O)/C(C)=C\C=C\[C@H](C)[C@H](O)[C@@H](C)[C@@H](O)[C@@H](C)[C@H](OC(C)=O)[C@@H]1C` [RIFAMPIN], above 16 µg/mL. On the same count and under the same terms, the figure for `O=C(Nc1nnc(-c2cccnc2)o1)c1ccc([N+](=O)[O-])o1` is 0.037 µg/mL (≈ 0.123 µM); for `O=C(Nc1nnc(-c2ccccn2)o1)c1ccc([N+](=O)[O-])o1` it is 0.03 µg/mL (≈ 0.0996 µM); for `O=[N+]([O-])c1ccc(-c2nnc(C3CCCCC3)o2)o1` it is 1.97 µg/mL (≈ 7.47 µM). For `NNC(=O)c1ccncc1` [ISONIAZID], the MIC in series [4] is above 16 µg/mL.

Turning to `O=[N+]([O-])c1ccc(-c2nnc(-c3ccc(Br)cc3)o2)o1`, the MIC in series [4] came to 0.597 µg/mL (≈ 1.78 µM).

As for `O=C(Nc1nnc(-c2ccc(F)cc2)o1)c1ccc([N+](=O)[O-])o1`, in series [4], the MIC is 2.47 µg/mL (≈ 7.77 µM). For the molecule `CC(C)(C)c1ccc(-c2nnc(NC(=O)c3ccc([N+](=O)[O-])o3)o2)cc1`, the MIC in series [4] was above 16 µg/mL.

As for `O=C(Nc1nnc(-c2ccncc2)o1)c1ccc([N+](=O)[O-])o1`, the MIC in series [4] is 0.038 µg/mL (≈ 0.126 µM).

With `O=C(Nc1nnc(-c2ccc(Cl)cc2)o1)c1ccc([N+](=O)[O-])o1`, the minimum inhibitory concentration (MIC) in series [4] turned out to be 0.937 µg/mL (≈ 2.8 µM). In the case of `COc1ccc(-c2nnc(CNC(=O)c3ccc([N+](=O)[O-])o3)o2)cc1`, the MIC in [4] stood at 7.07 µg/mL (≈ 20.5 µM). On to `O=C(NCc1nnc(-c2ccc(OC(F)(F)F)cc2)o1)c1ccc([N+](=O)[O-])o1`, for which the CC50 at 72 h in [2] came to 3.48 µg/mL (≈ 8.74 µM). In series [4], the MIC turned out to be 9.86 µg/mL (≈ 24.8 µM).
